Test results as given in patent publication US20040039060A1, “Inhibitor for enzyme having two divalent metal ions as active centers” (priority 2000, published 2004).

Key:
[1] = molecular target: HIV-1 integrase (Human immunodeficiency virus type 1 group M subtype B, UniProt P04585); assay: HIV-1 integrase inhibition assay (microtiter plate, immobilised substrate DNA, Dig-labelled target DNA, OD 405 nm); type: biochemical
Method: Substrate DNA and target DNA, which sequences were indicated below, were synthesized by Amersham Pharmacia Biotech and dissolved in KTE buffer (composition: 100 mM KCl, 1 mM EDTA, 10 mM Tris-HCl (pH 7.6)) at concentration of 2 pmol/μl and 5 pmol/μl, respectively. The DNA solutions were annealed with each complement by slowly cooling after heating.
Streptavidin, obtained from Vector Laboratories, was dissolved in 0.1 M carbonate buffer (composition: 90 mM Na2CO3, 10 mM NaHCO3) at concentration of 40 μg/ml. After coating each well of microtiter plates (obtained from NUNC) with 50 μl of the above solution at 4° C. overnight, each well was washed twice with PBS (composition: 13.7 mM NaCl, 0.27 mM KCl, 0.43 mM Na2HPO4, 0.14 mM KH2PO4) and blocked with 300 μl of 1% skim milk in PBS for 30 min. Additionally, each well was washed twice with PBS and added 50 μl of substrate DNA solution (2 pmol/μl). The microtiter plates were kept at room temperature for 30 min. Then, each well was washed twice with PBS and once with H2O.
Subsequently, in the each well prepared above were added 45 μl of the reaction buffer prepared from 12 μl of the buffer (composition: 150 mM MOPS (pH 7.2), 75 mM MnCl2, 50 mM 2-mercaptoethanol, 25% glycerol, 500 μg/ml bovine serum albumin-fraction V), 1 μl of target DNA (5 pmol/μl), and 32 μl of the distilled water. Additionally, 6 μl of either a test compound in DMSO or DMSO for positive control(PC) was mixed with the above reaction buffer, then 9 μl of an integrase solution (30 pmol) was added and mixed well. In the well of negative control (NC) was added 9 μl of the integrase dilution buffer (composition: 20 mM MOPS (pH7.2), 400 mM potassium glutamate, 1 mM EDTA, 0.1% NP-40, 20% glycerol, 1 mM DTT, 4M urea).
The microtiter plates were incubated at 30° C. for 1 hour. The reaction solution was removed and each well was washed twice with PBS. Subsequently, each well of the microtiter plates was filled with 100 μl of anti-digoxigenin antibody labeled with alkaline phosphatase (Sheep Fab fragment: obtained from Boehringer) and incubated at 30° C. for 1 hour. Then, each well was washed twice with 0.05% Tween20 in PBS and once with PBS. Next, 150 μl of the Alkaline phosphatase reaction buffer (composition: 10 mM p-Nitrophenylphosphate (obtained from Vector Laboratories), 5 mM MgCl2, 100 mM NaCl, 100 mM Tris-HCl (pH 9.5)) was added in each well. […] The optical density (OD) at 405 nm of each well was measured and the percent inhibition was determined by the following expression.
The percent inhibition (%)=100[1-{(C abs.−NC abs.)/(PC abs.−NC abs.)}]
When the percent inhibition (%) is X % at the concentration of x μg/ml and the percent inhibition (%) is Y % at the concentration of y μg/ml, one of which is more than 50% and the other is less than 50%, IC50 can be determined by the following expression.
IC50(μg/ml)=x-{(X-50)(x-y)/(X-Y)}
Compound No. in the Table 1 is the same as compound No. of the above example.

| Structure (SMILES) | melting point | IC50 [1] |
| --- | --- | --- |
| O=C(C=C(O)c1ccncc1)c1ccc(Cc2ccc(F)cc2)o1 [Compound B-8, 1-[5-(4-Fluorobenzyl)furan-2-yl]-3-hydroxy-3-(pyridin-4-yl)-propenone] | 90 to 92 °C | > 309 µM |
| O=C(O)c1ccc(C(O)=CC(=O)c2ccc(Cc3ccc(F)cc3)o2)nc1 [Compound A-6, 3-(5-Carboxypyridin-2-yl)-1-[5-(4-fluorobenzyl)furan-2-yl]-3-hydroxy-propenone] | 196 to 198 °C | 0.272 µM |
| O=C(C=C(O)c1ncccc1C(=O)O)c1ccc(Cc2ccc(F)cc2)o1 [Compound B-9, 3-(3-Carboxypyridin-2-yl)-1-[5-(4-fluorobenzyl)furan-2-yl]-3-hydroxy-propenone] | 127 to 130 °C | > 272 µM |
| COC(=O)C(=O)c1oc2ccc(OCc3ccc(F)cc3)cc2c1O [Compound E-1, [5-(4-Fluoro-benzyloxy)-3-hydroxy-benzofuran-2-yl]-2-oxo-acetic acid methyl ester] |  | 7.55 µM |
| O=C(O)C(O)Cc1cc(CCc2ccccc2)ncn1 [Compound D-3] |  | > 367 µM |
| O=C(C=C(O)c1ccccn1)c1ccc(Cc2ccc(F)cc2)o1 [Compound A-4, 1-[5-(4-Fluorobenzyl)furan-2-yl]-3-hydroxy-3-(pyridin-2-yl)-propenone] | 84 to 85 °C | 0.619 µM |
| O=C(C=C(O)c1cc2ccccc2cn1)c1ccc(Cc2ccc(F)cc2)o1 [Compound A-7, 1-[5-(4-Fluorobenzyl)furan-2-yl]-3-hydroxy-3-(isoquinolin-3-yl)-propenone] | 154 to 156 °C | 3.75 µM |
| O=C(C=C(O)c1ncccn1)c1ccc(Cc2ccc(F)cc2)o1 [Compound A-2, 1-[5-(4-Fluorobenzyl)furan-2-yl]-3-hydroxy-3-(pyrimidin-2-yl)-propenone] | 77 to 80 °C | 0.247 µM |
| OC(=Cc1cc(CCc2ccccc2)ncn1)c1nccs1 [Compound C-4] |  | 1.94 µM |
| Cc1cc(C(O)=Cc2cc(CCc3ccccc3)ncn2)no1 [Compound C-6] |  | 2.73 µM |
| Cc1cc(C(O)=Cc2cc(CCc3ccccc3)ncn2)on1 [Compound D-1] |  | > 325 µM |
| Cc1cc(C(O)=CC(=O)c2ccc(Cc3ccc(F)cc3)o2)on1 [Compound B-7, 1-[5-(4-Fluorobenzyl)furan-2-yl]-3-hydroxy-3-(3-methylisoxazol-5-yl)-propenone] | 106 to 107 °C | > 306 µM |
| OC(=Cc1cc(CCc2ccccc2)ncn1)c1ncn[nH]1 [Compound C-3] |  | 1.7 µM |
| O=C(C=C(O)c1ccon1)c1ccc(Cc2ccc(F)cc2)o1 [Compound A-9, 1-[5-(4-Fluorobenzyl)furan-2-yl]-3-hydroxy-3-(isoxazol-3-yl)-propenone] | 50 to 52 °C | 10.5 µM |
| O=C(O)c1ccnc(C(O)=CC(=O)c2ccc(Cc3ccc(F)cc3)o2)c1 [Compound A-5, 3(4-Carboxypyridin-2-yl)-1-[5-(4-fluorobenzyl)furan-2-yl]-3-hydroxy-propenone] | 208 to 210 °C | 0.191 µM |
| O=C(O)C(O)=Cc1cnc(CCc2ccccc2)cn1 [Compound C-7] |  | 2.26 µM |

| Structure (SMILES) | melting point | IC50 [1] |
| --- | --- | --- |
| Cn1cccc1C(O)=CC(=O)c1ccc(Cc2ccc(F)cc2)o1 [Compound B-5, 1-[5-(4-Fluorobenzyl)furan-2-yl]-3-hydroxy-3-(1-methylpyrrol-2-yl)-propenone] | 75 to 76 °C | > 307 µM |
| O=C(C=C(O)c1cccs1)c1ccc(Cc2ccc(F)cc2)o1 [Compound B-3, 1-[5-(4-Fluorobenzyl)furan-2-yl]-3-(thiophen-2-yl)-3-hydroxy-propenone] | 50 to 52 °C | > 305 µM |
| O=C(C=C(O)c1cnccn1)c1ccc(Cc2ccc(F)cc2)o1 [Compound A-3, 1-[5-(4-Fluorobenzyl)furan-2-yl]-3-hydroxy-3-(pyrazin-2-yl)-propenone] | 127 to 129 °C | 1.85 µM |
| OC(=Cc1cc(CCc2ccccc2)ncn1)c1nnn[nH]1 [Compound C-2] |  | 4.76 µM |
| O=C(O)/C(O)=C/c1ccc(OCc2ccccc2)cn1 [Compound C-8] |  | 1.7 µM |
| Cc1cc(C(O)=CC(=O)c2ccc(Cc3ccc(F)cc3)o2)no1 [Compound A-10, 1-[5-(4-Fluorobenzyl)furan-2-yl]-3-hydroxy-3-(5-methylisoxazol-3-yl)-propenone] | 95 to 97 °C | 5.5 µM |
| O=C(C=C(O)c1ccco1)c1ccc(Cc2ccc(F)cc2)o1 [Compound B-1, 1-[5-(4-Fluorobenzyl)furan-2-yl]-3-(furan-2-yl)-3-hydroxy-propenone] | 44 to 45 °C | > 320 µM |
| O=C(O)C(=O)c1oc2ccc(OCc3ccc(F)cc3)cc2c1O [Compound E-2, [5-(4-Fluoro-benzyloxy)-3-hydroxy-benzofuran-2-yl]-2-oxo-acetic acid] |  | 7.87 µM |
| COC(=O)C(=O)c1oc2ccc(Cc3ccc(F)cc3)cc2c1O [Compound E-5, [5-(4-Fluoro-benzyl)-3-hydroxy-benzofuran-2-yl]-2-oxo-acetic acid methyl ester] | 128 to 130 °C |  |
| O=C(C=C(O)c1ccoc1)c1ccc(Cc2ccc(F)cc2)o1 [Compound B-2, 1-[5-(4-Fluorobenzyl)furan-2-yl]-3-(furan-37yl)-3-hydroxy-propenone] | 53 to 55 °C | > 320 µM |
| OC(=Cc1cc(CCc2ccccc2)ncn1)c1cnccn1 [Compound C-5] |  | 5.26 µM |
| O=C(c1ccccn1)c1oc2ccc(Cc3ccc(F)cc3)cc2c1O [Compound E-8, 1-[5-(4-Fluoro-benzyl)-3-hydroxy-benzofuran-2-yl]-1-pyridine-2-yl-methanone] | 258 °C (dec.) |  |
| O=C(C=C(O)c1nn[nH]n1)c1ccc(Cc2ccc(F)cc2)o1 [Compound A-1, 1-[5-(4-Fluorobenzyl)furan-2-yl]3-hydroxy-3-(2H-tetrazol-5-yl)-propenone] | 121 to 123 °C | 1.27 µM |
| O=C(C=C(O)c1cccnc1)c1ccc(Cc2ccc(F)cc2)o1 [Compound B-4, 1-[5-(4-Fluorobenzyl)furan-2-yl]-3-hydroxy-3-(pyridin-3-yl)-propenone] | 53 to 54 °C | > 309 µM |
| O=C(/C=C(\O)c1ccc[nH]1)c1ccc(Cc2ccc(F)cc2)o1 [Compound B-6, 1-[5-(4-Fluorobenzyl)furan-2-yl]-3-hydroxy-3-(pyrrol-2-yl)-propenone] |  | > 321 µM |
| O=C(O)C(=O)c1oc2ccc(Cc3ccc(F)cc3)cc2c1O [Compound E-6, [5-(4-Fluorobenzyl)-3-hydroxy-benzofuran-2-yl]-2-oxo-acetic acid] | 207 to 210 °C |  |
